Laboratory results taken from publication PMC9126943, “ADAMTS4-specific MR probe to assess aortic aneurysms in vivo using synthetic peptide libraries” (Nature Communications, 2022).
Several values for one entry are separate records, joined by “and”; a condition that tells them apart may be missing. Equal entries are not always repeated. Entries after “also recorded” stand apart in the source; their conditions may differ. Where a SMILES comes first, the peptide text is derived from it. Bridges are numbered along the chain shown (N, C = ends). The star is where a group is joined. Cy5(nonsulfonated) = CN1C(=CC=CC=CC2=[N+](CCCCCC(=O)*)c3ccccc3C2(C)C)C(C)(C)c2ccccc21

Tests used:
[1] = target: T1, ADAMTS4 (Homo sapiens, UniProt O75173); experiment: MST instrument, ligand-dependent fluorescence change, Cy5-labeled peptides vs ADAMTS4 (incl. alanine scan); format: binding; details: for binding to ADAMTS4 (ligand-dependent fluorescence change), in words: Cy5-labeled peptide 3 nM, 25 °C, n = 3
T1 construct: This is consistent with the recombinant proteins, we used in the screening process; purchased BioTeZ Berlin-Buch GmbH 30 400 102
T1 sequence (O75173 213-685): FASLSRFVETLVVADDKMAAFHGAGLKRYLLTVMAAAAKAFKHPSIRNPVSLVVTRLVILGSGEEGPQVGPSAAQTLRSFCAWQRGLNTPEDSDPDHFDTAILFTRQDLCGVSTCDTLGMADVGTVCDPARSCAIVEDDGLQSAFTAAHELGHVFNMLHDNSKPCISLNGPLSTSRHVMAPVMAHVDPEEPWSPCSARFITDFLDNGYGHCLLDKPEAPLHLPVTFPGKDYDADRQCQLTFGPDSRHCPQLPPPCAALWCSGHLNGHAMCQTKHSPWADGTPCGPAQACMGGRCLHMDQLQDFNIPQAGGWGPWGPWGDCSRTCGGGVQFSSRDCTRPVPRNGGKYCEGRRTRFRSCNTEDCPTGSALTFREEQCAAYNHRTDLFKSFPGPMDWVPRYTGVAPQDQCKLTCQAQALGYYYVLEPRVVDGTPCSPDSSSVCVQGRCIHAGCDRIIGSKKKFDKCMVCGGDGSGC
Procedure: Microscale thermophoresis (MST) was performed on a Monolith Pico (NanoTemper, Munich, Germany). The Cy5-labeled peptides were diluted into the MST buffer (150 mM NaCl, 50 mM TRIS-HCl, 5 mM CaCl2, and Tween-20) to reach a dilution of 6 nM. ADAMTS4, ADAMTS5, and ADAMTS1 were directly used with the supplied concentration. For ADAMTS4, the starting concentration was 4.96 µM, while for ADAMTS1 it was 4.88 µM and for ADAMTS5 it was 2.46 µM. […] 20 µl of the protein solutions were transferred into a PCR tube. 10 µl of this first vial was transferred into a second vial and mixed by pipetting with 10 µl of the MST buffer. The dilution series was continued 14 times. From tube 16, 10 µl were removed. Into all 16 tubes, 10 µl of the respective peptide solution were added and mixed by pipetting. The samples were incubated for 20 min and subsequently transferred to premium capillaries (NanoTemper, Munich, Germany). The capillaries were transferred into the Monolith tray and measured with 10% excitation power on the pico-red excitation on high MST power at 25 °C. Analysis was performed with MO.Affinity Analysis v3.0.1 (NanoTemper, Munich, Germany) and Origin 2022 (OriginLab Corporation, Northampton, MA). […] We checked for ADAMTS4 and the ADAMTS4-specific-Cy5-labeled probe via a saturation test for specifying the ligand-dependent fluorescence change. Therefore, the three highest ligand concentrations and the three lowest ligand concentrations of the measurement were used and centrifuged for 15 min at 16060 x g at 20 °C. Of each concentration, 7 µl were picked and mixed with 7 µl of a 10 M urea solution each. The samples were heated at 95 °C for 5 min and measured in the MST. […] Each measurement was repeated three times independently and the binding constant was calculated by merging all three measurements. […] The data were normalized using MO Affinity Analysis v3.0.1 and the fraction bound [−] was shown. […] Therefore, the percentage variance of the values to the average was plotted.
All measurements were performed with 10% LED power, high MST power and at 25 °C. The ligand dependent fluorescence change was used for determining the binding. […] The concentrations of the peptide were kept constant (3 nM in the measurement), while the proteins were diluted in the same manner as for ADAMTS4. […] The Cy5-labeled peptides (3 nM in the measurement) were kept constant, while ADAMTS4 was diluted in the same manner for each peptide (n=3 biologically independent measurements for each peptide; the data are presented as mean values ± SD). […] MST: microscale thermophoresis; nM: nanomolar; His: L-histidine; LED: light-emitting diode; n/a: not available; KD: binding constant.

[2] = target: T2, ADAMTS4 in the aortic wall of ApoE−/− mice (Mus musculus, UniProt Q8BNJ2); experiment: In vivo MRI with negative control probe and ADAMTS4-specific probe; details: for CNR post administration, individual animals: d1 = negative control probe, d2 = ADAMTS4-specific probe, 0.13 mmol/kg
T2 construct: from tissue
T2 sequence (Q8BNJ2 209-833): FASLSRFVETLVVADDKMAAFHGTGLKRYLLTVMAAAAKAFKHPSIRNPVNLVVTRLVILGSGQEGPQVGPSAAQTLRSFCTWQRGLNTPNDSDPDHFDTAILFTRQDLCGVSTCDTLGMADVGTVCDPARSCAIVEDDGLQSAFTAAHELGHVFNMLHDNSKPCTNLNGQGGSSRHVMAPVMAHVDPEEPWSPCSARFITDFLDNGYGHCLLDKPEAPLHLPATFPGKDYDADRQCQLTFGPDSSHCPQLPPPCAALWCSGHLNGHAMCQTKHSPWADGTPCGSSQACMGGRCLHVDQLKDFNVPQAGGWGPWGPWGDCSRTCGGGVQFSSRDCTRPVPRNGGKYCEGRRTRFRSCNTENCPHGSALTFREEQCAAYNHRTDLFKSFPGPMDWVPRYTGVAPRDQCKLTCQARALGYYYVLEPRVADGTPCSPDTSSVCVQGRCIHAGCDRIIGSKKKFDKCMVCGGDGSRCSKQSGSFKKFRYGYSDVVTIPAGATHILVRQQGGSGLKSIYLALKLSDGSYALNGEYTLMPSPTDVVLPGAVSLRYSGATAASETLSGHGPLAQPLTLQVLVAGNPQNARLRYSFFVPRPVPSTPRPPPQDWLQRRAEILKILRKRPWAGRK
Procedure: In vivo MR imaging was performed in 6 ApoE^−/− mice (n = 6): three mice (n = 3) received AngII through the osmotic minipumps, three mice (n = 3) received saline, serving as the control group. MR imaging was performed 4 weeks after minipump implantation. On day 1, a native MR scan was followed by the intravenous injection of the negative control peptide (0.13 mmol/kg) and a subsequent MR scan. 24 h later, mice were imaged prior to and following the intravenous administration of the ADAMTS4-specific probe (0.13 mmol/kg).
Analysis of resulting MR images was performed using OsiriX (version 7.1, OsiriX Foundation, Bernex, Switzerland). All morphometric measurements were conducted on high-resolution MRI images. In order to assess the signal intensities, regions of interest (ROIs) were measured as areas of signal enhancement, which were co-localized with areas of aneurysmal-aortic tissue. For these areas, the CNR was calculated using the following formula: CNR = (Combined vessel-wall and aneurysmal-aortic-tissue-signal − blood-signal)/standard-deviation-signal (noise). The signal of noise was defined as the standard deviation in pixel intensity from an ROI placed in the background air anterior to the aorta.

[3] = target: T1, ADAMTS4; experiment: MST trace (MST points at 2.5 seconds) of peptides without fluorescence change; format: binding; details: high MST power
Procedure: Microscale thermophoresis (MST) was performed on a Monolith Pico (NanoTemper, Munich, Germany). The Cy5-labeled peptides were diluted into the MST buffer (150 mM NaCl, 50 mM TRIS-HCl, 5 mM CaCl2, and Tween-20) to reach a dilution of 6 nM. ADAMTS4, ADAMTS5, and ADAMTS1 were directly used with the supplied concentration. For ADAMTS4, the starting concentration was 4.96 µM, while for ADAMTS1 it was 4.88 µM and for ADAMTS5 it was 2.46 µM. Since we saw a loss of binding after centrifugation, the use of protein concentrators were inappropriate. 20 µl of the protein solutions were transferred into a PCR tube. 10 µl of this first vial was transferred into a second vial and mixed by pipetting with 10 µl of the MST buffer. […] The capillaries were transferred into the Monolith tray and measured with 10% excitation power on the pico-red excitation on high MST power at 25 °C. […] We detected a ligand-dependent fluorescence change for some of the systems. We checked for ADAMTS4 and the ADAMTS4-specific-Cy5-labeled probe via a saturation test for specifying the ligand-dependent fluorescence change. […] The samples were heated at 95 °C for 5 min and measured in the MST. The fluorescence difference between the concentrations was afterward at the same level. Each measurement was repeated three times independently and the binding constant was calculated by merging all three measurements. […]

[4] = target: ADAMTS4-specific peptide with the glycine exchanged for alanine (alanine scan peptide), Cy5-labeled; experiment: MST; Monolith Pico; read-out is the ligand-dependent fluorescence change, not the thermophoresis; Cy5-labeled peptide constant (6 nM solution), protein in a 16-step 1:1 dilution series; 150 mM NaCl, 50 mM TRIS-HCl, 5 mM CaCl2, Tween-20; 25 °C
[5] = target: ADAMTS4-specific probe, Cy5-labeled (cyclic peptide Cys*-Ser-Arg-Arg-Gly-Cys*-Ser with peptide linker); experiment: as above

## C[C@@H]1NC(=O)[C@H](CCCNC(=N)N)NC(=O)[C@H](CCCNC(=N)N)NC(=O)[C@H](CO)NC(=O)[C@@H](N)CSSC[C@@H](C(=O)N[C@@H](CO)C(=O)NCC(=O)NCC(=O)N[C@@H](CO)C(=O)NCC(=O)NCC(=O)N[C@@H](CCCCNC(=O)CCCCCN2C(=CC=CC=CC3=[N+](C)c4ccccc4C3(C)C)C(C)(C)c3ccccc32)C(=O)NCC(N)=O)NC1=O [ADAMTS4-specific probe-Gly] (H-CSRRACSGGSGGK(Cy5(nonsulfonated))G-NH2; disulfide 1-6; N-terminus and C-terminus assumed)
[1]
  binding to ADAMTS4 (ligand-dependent fluorescence change), in words: decrease the binding; also recorded: a ligand dependent fluorescence change occurs
[1]; alanine scan
  decrease in the binding affinity versus the parent peptide: around ten times

## Cys*-Phe-His-Pro-Tyr-Cys*-linker (DOTA-Gd) (disulfide) [negative control probe, Cys*-Phe-His-Pro-Tyr-Cys*-linker (DOTA-Gd), similar size to the ADAMTS4-specific probe]
[2]; 0.13 mmol/kg i.v., 4 weeks after minipump implantation, n = 6
  increase in MR signal / CNR in the aortic wall, in words: no significant increase; also recorded: significantly lower increase
[2]; AAA (AngII) mice
  CNR post administration, individual animals: 7.71 and 5.8 and 6.78
[2]; control (c, saline) mice
  CNR post administration, individual animals: 4.54 and 4.4 and 5.52

## Cys*-Phe-His-Pro-Tyr-Cys*-Ser (disulfide) [negative control peptide]
[3]
  binding in the MST trace: no binding occurs
[1]
  binding to ADAMTS4 (ligand-dependent fluorescence change), in words: could not find binding; also recorded: no fluorescence change was detectable; also recorded: did not show any binding

B1: ADAMTS4 (A Disintegrin And Metalloproteinase with ThromboSpondin motifs 4), recombinant human (enzyme)
chain: T1 sequence (O75173 213-685)
[4]
  Kd: 609 nM
[5]
  Kd: 51 nM
